# Reference: patent US4661516A, “Diaminocyclohexane platinum complexes” (Research Corporation, priority 1984, dated 1987)
# Legend:
# [1] = system: Wild type L1210 leukemic cells; assay: In vitro cytotoxicity, wild type L1210 leukemic cells (L1210/0); assay type: cell-based; details: for ID50: L1210, 72 hours incubation; for ID50 L1210/0: L1210/0, protocol of Example 14, Tables VII and VIII
# Experimental: Four ml of cell suspension (10^5 cells/ml) are added to culture tubes and the appropriate concentration (0.01, 0.1, 1 or 10 μg/ml final concentration) of drug added to the culture tubes. After 72 hours of incubation, the cell concentration of control and experimental cultures are determined with the aid of a Coulter Counter® Model ZBf and the percent inhibition calculated. […]
# [2] = system: L1210 leukemia cells (L1210/PDD); assay: In vitro cytotoxicity / cross-resistance, L1210/PDD (L1210/DDP) cells resistant to cisdiamminedichloroplatinum(II); assay type: cell-based; details: for ID50 L1210/DDP: Tables VII and VIII, 5760 min; for ID50 L1210/PDD: 96 hours
# Experimental: Four ml of cell suspension were added to culture tubes and the appropriate concentration (0.01, 0.1, 1 or 10 μg/ml final drug concentration) was added. After 96 hours the cell concentration of control and experimental cultures were calculated with the aid of a Coulter Counter® Model ZBf and the percent inhibition calculated.
# L1210 cells = assay: In vivo anti-tumor activity, L1210, single i.p. injection; set-up: species or system BDF1 mice; details: single i.p.
# Experimental: About 24 hours after inoculation of the cells, the mice were injected intraperitoneally with varying dosages of complexes of the present invention. […] Long term survival signifies that animals were alive 60 days after inoculation with L1210 cells.
# L1210/0 leukemia cells = assay: In vivo anti-tumor activity, L1210 (L1210/0), multiple i.p. doses; set-up: species or system BDF1 mice; details: for Maximal Effective Dose: i.p. on days 1, 5 and 9; for LTS: survivors/treated 50 days after treatment
# Experimental: BDF1 mice were inoculated intraperitoneally with 10^6 L1210 cells. About 24 hours after inoculation of the cells, the mice were injected intraperitoneally with varying dosages of complexes of the present invention. Six mice were used for each dosage level in each experiment with an equal number of control mice inoculated with 10^6 L1210 cells and left untreated with a given complex. The results [%T/C=(survival time of treated animals/survival time of control animals)×100] are set forth below. Long term survival signifies that animals were alive 60 days after inoculation with L1210 cells.
# The procedure of Example 16 was repeated except that the treated animals were injected with multiple doses of the complex as indicated below:
# The anti-tumor activity of compound number 3 was evaluated against cells sensitive to (L1210/0) and resistant to (L1210/PDD) the standard platinum complex cis-diamminedichloroplatinum(II).
# The following complexes were tested in vivo oncolytic activity following 3 i.p. injections (days 1, 5, 9) according to the protocol described in Examples 16 and 17.
# BDF1 mice were innoculated intraperitoreally with 10^6 L1210 leukemia cells and treatment was begun on the next day (day 1). Two treatment schedules, i.e. single i.p. injection of the drug and i.p. injections on days 1, 5 and 9 according to the protocol described in Examples 16 and 17 were used.
# B16 cells = assay: Melanotic melanoma test, i.p. inoculated B16 melanoma; assay type: in vivo, BDF1 mice; details: for Maximal Effective Dose: B16, i.p. days 1, 5 and 9; for % T/C / Long Term Survivors: B16, i.p. days 1, 5 and 9, at maximal effective dose; for Long Term Survivors: 60 days
# Experimental: The animals used were BDF1 mice, all of the same sex, weighing a minimum of 18 g. and all within a 4 g. weight range. There were 6 animals per test group. […] The test compounds were administered intraperitoneally on days 1, 5 and 9 at various doses. The animals were weighed and survivors were recorded on a regular basis for 60 days. The median survival time and the ratio of survival time for treated (T)/control (C) animals were calculated. […] The criterion for efficacy is T/C×100≥125%.
# Male albino mice = assay: Acute toxicity, single intraperitoneal injection (Example 19); assay type: in vivo; details: single i.p.; for Calculated LD10 / Calculated LD50 / Calculated LD90: 14 days
# Experimental: Fourteen days after treatment all surviving mice were sacrified and the LD10, LD50 and LD90 were calculated.
# [3] = Tables X and XI, days 1, 5 and 9, at maximal effective dose, alive 60 days after tumor inoculation
# [4] = Tables X and XI, i.p. on days 1, 5 and 9, at maximal effective dose
molecule,measurement,setting,value
isocitratomonoethylester(DACH)Pt(II).1.5H2 O [Compound 21],ID50,[1],2.0 µg/mL
same,ID50 L1210/DDP,[2],1.9 µg/mL
"N[C@@H]1CCCC[C@H]1N.O=C1O[C@H]([C@@H](O)CO)C([O-])=C1O.O=C1O[C@H]([C@@H](O)CO)C([O-])=C1O.[Pt+2] [Compound 4, cis-bis-ascorbato(trans-R,R--DACH)Pt(II).3H2 O]",ID50,[1],1.9 µg/mL
same,ID50 L1210/PDD,[2],0.4 µg/mL
same,% T/C,L1210 cells; 25 mg/kg,128%
same,% T/C,L1210 cells; 50 mg/kg,184%
same,Long Term Survivors (LTS),"L1210 cells; 50 mg/kg, alive 60 days after inoculation",1/6
same,% T/C,"L1210/0 leukemia cells; 25 mg/kg, days 1,5,9",218%
same,% T/C,"L1210/0 leukemia cells; 50 mg/kg, days 1,5,9",144%
mono-N--benzyliminodiacetato [Identifier No. 15a],ID50 L1210/0,[1]; 4320 min,1.0 µg/mL
same,ID50 L1210/DDP,[2],2.4 µg/mL
same,Long Term Survivors,L1210/0 leukemia cells; [3],4/6
same,Maximal Effective Dose,L1210/0 leukemia cells; Tables X and XI,6.25 mg/kg
same,% T/C,L1210/0 leukemia cells; [4],620%
same,Maximal Effective Dose,B16 cells,12.5 mg/kg
same,% T/C,B16 cells,252%
same,Long Term Survivors,B16 cells,3/6
"NC1CCCCC1N.NCCOS(=O)(=O)[O-].NCCOS(=O)(=O)[O-].[Pt+2] (stereo not drawn) [Compound 14, cis-bis-2-aminoethylsulfato(DACH)Pt(II)]",ID50,[1],4.3 µg/mL
same,ID50 L1210/DDP,[2],3.7 µg/mL
"NC(=O)CN(CC(=O)[O-])CC(=O)[O-].NC1CCCCC1N.[Pt+2] [Compound 42, N--(2-Acetamido)-iminodiacetato(DACH)Pt(II).1/2H2 O]",ID50,[1],0.7 µg/mL
same,ID50 L1210/0,[1]; 4320 min,3.0 µg/mL
same,ID50 L1210/DDP,[2],1.8 µg/mL
furanedicarboxylato(DACH)Pt(II) [Compound 19],ID50,[1],1.0 µg/mL
same,ID50 L1210/DDP,[2],0.9 µg/mL
same,% T/C,L1210 cells; 6.25 mg/kg,143%
same,% T/C,L1210 cells; 12.5 mg/kg,136%
same,% T/C,L1210 cells; 25 mg/kg,136%
same,% T/C,L1210 cells; 50 mg/kg,Toxic
mono-N--phenyliminodiacetato [Identifier No. 14a],ID50 L1210/0,[1]; 4320 min,0.7 µg/mL
same,ID50 L1210/DDP,[2],0.6 µg/mL
same,Long Term Survivors,L1210/0 leukemia cells; [3],4/6
same,Maximal Effective Dose,L1210/0 leukemia cells; Tables X and XI,6.25 mg/kg
same,% T/C,L1210/0 leukemia cells; [4],578%
same,Maximal Effective Dose,B16 cells,25 mg/kg
same,% T/C,B16 cells,160%
same,Long Term Survivors,B16 cells,3/6
"NC1CCCCC1N.O=C1OC(C(O)CO)C([O-])=C1O.O=C1OC(C(O)CO)C([O-])=C1O.[Pt+2] (mixture of isomers) [Compound 7, cis-bis-isoascorbato(DACH)Pt(II).3H2 O]",ID50,[1]; 4320 min,4.1 µg/mL
same,ID50 L1210/DDP,[2],3.8 µg/mL
same,% T/C,L1210 cells; 25 mg/kg,132%
same,% T/C,L1210 cells; 50 mg/kg,136%
same,% T/C,L1210 cells; 100 mg/kg,196%
same,animals died of apparent drug toxicity,L1210 cells; 100 mg/kg,2/6
same,Long Term Survivors,"L1210 cells; 100 mg/kg, alive 60 days after inoculation",1/6
same,% T/C,"L1210/0 leukemia cells; 12.5 mg/kg, days 1,5,9",151%
same,% T/C,"L1210/0 leukemia cells; 25 mg/kg, days 1,5,9",179%
same,% T/C,"L1210/0 leukemia cells; 50 mg/kg, days 1,5,9",212%
"NC1CCCCC1N.O=C([O-])C1CCCN1.O=C([O-])C1CCCN1.[Pt+2] [Compound 16, cis-bis-L-prolinato(DACH)Pt(II)]",ID50,[1],4.0 µg/mL
same,ID50 L1210/DDP,[2],2.5 µg/mL
same,% T/C,L1210 cells; 12.5 mg/kg,144%
same,% T/C,L1210 cells; 25 mg/kg,165%
same,% T/C,L1210 cells; 50 mg/kg,165%
same,% T/C,L1210 cells; 100 mg/kg,162%
same,animals died of apparent drug toxicity,L1210 cells; 100 mg/kg,1 animals
"CN(CC(=O)[O-])CC(=O)[O-].N[C@@H]1CCCC[C@H]1N.[Pt+2] [Identifier No. 11a, mono-N--methyliminodiacetato]",ID50 L1210/0,[1]; 4320 min,0.8 µg/mL
same,ID50 L1210/DDP,[2],1.9 µg/mL
same,Long Term Survivors,L1210/0 leukemia cells; [3],6/6
same,Maximal Effective Dose,L1210/0 leukemia cells; Tables X and XI,6.25 mg/kg
same,% T/C,L1210/0 leukemia cells; [4],700%
same,Maximal Effective Dose,B16 cells,25 mg/kg
same,% T/C,B16 cells,210%
same,Long Term Survivors,B16 cells,2/6
cis-bis-D-monosaccharato(DACH)Pt(II).3H2 O [Compound 8],ID50,[1],2.8 µg/mL
same,ID50 L1210/PDD,[2],0.9 µg/mL
same,% T/C,L1210 cells; 12.5 mg/kg,120%
same,% T/C,L1210 cells; 25 mg/kg,129%
same,% T/C,L1210 cells; 50 mg/kg,156%
same,% T/C,L1210 cells; 100 mg/kg,151%
same,% T/C,L1210 cells; 200 mg/kg,Toxic
same,% T/C,"L1210/0 leukemia cells; 25 mg/kg, days 1,5,9",206%
same,% T/C,"L1210/0 leukemia cells; 50 mg/kg, days 1,5,9",225%
same,Long Term Survivors,"L1210/0 leukemia cells; 50 mg/kg, days 1,5,9",1/6
same,DEATHS/TREATED,Male albino mice; 100 mg/kg,1/6
same,DEATHS/TREATED,Male albino mice; 125 mg/kg,1/6
same,DEATHS/TREATED,Male albino mice; 158 mg/kg,4/6
same,DEATHS/TREATED,Male albino mice; 200 mg/kg,3/6
same,DEATHS/TREATED,Male albino mice; 250 mg/kg,6/6
same,Calculated LD10,Male albino mice,115 mg/kg
same,Calculated LD50,Male albino mice,155 mg/kg
same,Calculated LD90,Male albino mice,220 mg/kg
"NC1CCCCC1N.O=C1O[C@H]([C@@H](O)C(=O)[O-])[C@H](O)[C@H]1O.O=C1O[C@H]([C@@H](O)C(=O)[O-])[C@H](O)[C@H]1O.[Pt+2] [Compound 9, cis-bis-D-saccharato-1,4-lactone(DACH)Pt(II)]",ID50,[1],3.0 µg/mL
same,ID50 L1210/PDD,[2],0.6 µg/mL
same,% T/C,L1210 cells; 12.5 mg/kg,127%
same,% T/C,L1210 cells; 25 mg/kg,138%
same,% T/C,L1210 cells; 50 mg/kg,156%
same,% T/C,L1210 cells; 100 mg/kg,Toxic
same,DEATHS/TREATED,Male albino mice; 85 mg/kg,0/6
same,DEATHS/TREATED,Male albino mice; 100 mg/kg,0/6
same,DEATHS/TREATED,Male albino mice; 125 mg/kg,3/6
same,DEATHS/TREATED,Male albino mice; 158 mg/kg,5/6
same,DEATHS/TREATED,Male albino mice; 200 mg/kg,4/6
same,Calculated LD10,Male albino mice,100 mg/kg
same,Calculated LD50,Male albino mice,140 mg/kg
same,Calculated LD90,Male albino mice,185 mg/kg
"CCS(=O)(=O)[O-].CCS(=O)(=O)[O-].NC1CCCCC1N.O.[Pt+2] (stereo not drawn) [Compound 31, Cis-bis-ethanesulfonato(DACH)Pt(II).H2 O]",ID50,[1],3.1 µg/mL
same,% T/C,L1210 cells; 12.5 mg/kg,109%
same,% T/C,L1210 cells; 25 mg/kg,134%
same,% T/C,L1210 cells; 50 mg/kg,153%
same,% T/C,"L1210/0 leukemia cells; 50 mg/kg i.p., days 1, 5, 9, 30 day observation period",198%
same,LTS,"L1210/0 leukemia cells; 50 mg/kg, days 1, 5, 9",1/6
same,% T/C,"L1210/0 leukemia cells; 100 mg/kg i.p., days 1, 5, 9, 30 day observation period",295%
same,LTS,"L1210/0 leukemia cells; 100 mg/kg, days 1, 5, 9",2/6
"N[C@H]1CCCC[C@@H]1N.O=C1O[C@H]([C@@H](O)CO)C([O-])=C1O.O=C1O[C@H]([C@@H](O)CO)C([O-])=C1O.[Pt+2] [Compound 5, cis-bis-ascorbato(trans-S,S--DACH)Pt(II).2H2 O]",ID50,[1],4.4 µg/mL
same,ID50 L1210/PDD,[2],2.3 µg/mL
same,% T/C,L1210 cells; 25 mg/kg,136%
same,% T/C,L1210 cells; 50 mg/kg,Toxic
same,DEATHS/TREATED,Male albino mice; 60 mg/kg,0/6
same,DEATHS/TREATED,Male albino mice; 80 mg/kg,2/6
same,DEATHS/TREATED,Male albino mice; 100 mg/kg,5/6
same,DEATHS/TREATED,Male albino mice; 125 mg/kg,6/6
same,DEATHS/TREATED,Male albino mice; 160 mg/kg,5/6
same,Calculated LD10,Male albino mice,70 mg/kg
same,Calculated LD50,Male albino mice,90 mg/kg
same,Calculated LD90,Male albino mice,125 mg/kg
